Test results reported in patent US20260091086A1, “POLYPEPTIDE COMBINATIONS AND USES THEREOF” (MEDIMMUNE LIMITED, priority 2024, published 2026).
Numbered stars: 1 amine (or outer) side, 2 acyl side, 3 side chain; on linkers, the order of the positions; unused ones are H or OH. Bridge positions count the residues as written; N and C are the ends. Square brackets hold non-standard residues; d marks the D form. Side chains are listed from the residue outwards. Ends that are not written are not given here. * marks the point of attachment. C18 diacid = O=C(O)CCCCCCCCCCCCCCCCC(=O)*; γGlu = O=C(O)[C@H](CCC(=O)[*:2])N[*:1]; αMeF = C[C@](N)(Cc1ccccc1)C(=O)O

Key:
[1] = tested on: DIO Sprague-Dawley rats; assay: Example 5: 19-day Q2D body weight study with Fc-linked agonists; type: in vivo, rat; settings: mono-treatment 0.1 mg/kg Q2D SC, 19 days
Experimental: Study Design: Male DIO Sprague-Dawley rats were fed a high-fat diet (32.5% kcal fat, D12266B; Research Diets) for approximately 6 weeks prior to study start. Rats were dosed every other day (Q2D) SC for 19 days with Vehicle, GLP1-Fc (0.1 or 1 mg/kg), Fc-LAA (0.1 or 2 mg/kg) or a combination of GLP1-Fc and Fc-LAA (0.1+0.1 mg/kg, 0.1+2 mg/kg, 1+0.1 mg/kg or 1+2 mg/kg respectively) with an n=7/group. Body weight was monitored daily through-out study and shown below as % change of vehicle treatment. Data reported as mean±standard error of the mean (SEM). In this experiment, the LAA was an Fc-Amylin, and the GLP-1 agonist was dulaglutide (a GLP-1 agonist covalently linked to an Fc fragment of IgG4).

[2] = tested on: chow fed lean rats; assay: Example 3: acute gastric emptying by X-ray fluoroscopic quantification; type: in vivo, rat; settings: acute SC
Experimental: (§1) Study design: DIO male pair-housed rats fed a 32.5% high-fat diet (D12266B) for 7 weeks reached a mean body weight (BW) of ˜595 g. Rats were dosed SC daily for 28 days with vehicle (Vh), GLP-1/GCG dual agonist (1.5 or 5 nmol/kg), LAA (2.5 or 7.5 nmol/kg), or combination (1.5+2.5 nmol/kg, 1.5+7.5 nmol/kg, 5+2.5 nmol/kg, or 5+7.5 nmol/kg, respectively). Food intake (FI) and BW were measured daily. In chow fed lean rats, gastric emptying (GE) was measured via X-ray fluoroscopic quantification following SC injections of Vh, GLP-1/GCG dual agonist at 1, 3, or 10 nmol/kg or LAA at 1, 3, or 10 nmol/kg. In a subsequent acute GE study, lean rats received a single dose of Vh, GLP-1/GCG dual agonist (2 nmol/kg), LAA (2 nmol/kg) or GLP-1/GCG dual agonist+LAA combination (2+2 nmol/kg). In this experiment, the LAA was that of SEQ ID NO: 11, and the GLP-1/GCG dual-agonist was cotadutide.

[3] = tested on: diet-induced obese (DIO) Sprague-Dawley rats; assay: Example 2: 28-day combination study in DIO rats (body weight, EchoMRI body composition); type: in vivo, rat; settings: LAA 10 nmol/kg, GLP-1/GCG 5.4 nmol/kg or both
Experimental: Study Design: Male diet-induced obese (DIO) Sprague-Dawley rats were fed a high fat diet (45% fat, D12451; Research Diets) for 34 weeks prior to study start. […] Research Diets). […] Average body weight for all DIO rats at start of study was 722.4+10.1 grams. Body composition was measured by EchoMRI on day-7 and day 26. In this experiment, the LAA was that of SEQ ID NO: 11, and the GLP-1/GCG dual-agonist was cotadutide. Data reported as mean±standard error of the mean (SEM); data analysis performed using GraphPad Prism-statistical analysis performed using One-way ANOVA with Tukey ad hoc analysis.

[4] = tested on: DIO Sprague-Dawley rats; assay: Example 3: 28-day body weight study in DIO rats; type: in vivo, rat; settings: day 28
Experimental: Study Design: Male DIO Sprague-Dawley rats were fed a high-fat diet (32.5% kcal fat, D12266B; Research Diets) for approximately 8 weeks prior to study start. Rats were dosed once daily SC for 28 days with Vehicle, GLP-1/GCG (1.5 nmol/kg or 5 nmol/kg), LAA (7.5 nmol/kg) or a combination of GLP-1/GCG and LAA (1.5 and 7.5 nmol/kg, or 5 nmol/kg and 7.5 nmol/kg, respectively) with an n=6/group. Body weight was monitored daily throughout the study. Data reported as mean±standard error of the mean (SEM); data analysis performed using GraphPad Prism-statistical analysis performed using One-way ANOVA with Tukey ad hoc analysis (*p<0.05, **p<0.01, ***0<0.001, ****p<0.0001). In this experiment, the LAA was that of SEQ ID NO: 11, and the GLP-1/GCG dual-agonist was cotadutide.

[5] = tested on: DIO male pair-housed rats; assay: Example 3 additional study: 28-day body weight, food intake and organ weights in DIO rats; type: in vivo, rat
Experimental: as §1

[6] = tested on: AMY3R/CTR; assay: Relative potency ratio, cAMP accumulation assays with 0.1% BSA, human receptors; type: cell-based; settings: 0.1% bovine serum albumin, n ≥ 5; potencies relative to pramlintide 100%
[7] = tested on: AMY3R/CTR; assay: Relative potency ratio, cAMP accumulation assays with 0.1% BSA, rat receptors; type: cell-based; settings: 0.1% bovine serum albumin, n ≥ 5; potencies relative to pramlintide 100%
Experimental: (§2) Target engagement was estimated in the following way for each compound. The maximum concentration (Cmax) after subcutaneous injection was measured in separate rat pharmacokinetic studies and was dose-adjusted to the tested dose levels when appropriate, assuming dose linearity. Plasma protein binding was determined in vitro using 3B Pharmaceutical's Escalate Equilibrium Shift Assay or an in-house Surface Plasmon Resonance (SPR) assay. Peptide in vitro potency was determined via HTRF CAMP accumulation assay using HEK293 cells recombinantly expressing the rat calcitonin receptor or rat amylin receptor (calcitonin receptor plus RAMP3) in saline buffer containing 0.1% bovine serum albumin. The in vitro potencies (IC50s) for amylin and calcitonin were adjusted to unbound values by taking into account the albumin concentration in the assay and fraction unbound data, according to an established method (Wan H and Bergström F (2007), High Throughput Screening of Drug-Protein Binding in Drug Discovery, Journal of Liquid Chromatography & Related Technologies, 30:5, 681-700; doi: 10.1080/10826070701190989). Finally, the target engagement was calculated as the unbound Cmax divided by the unbound IC50, both for amylin and calcitonin. The Emax model was defined as aversion=E0+Emax×(ENG^h/(ENG^h+ED50^h)), where E0 is the baseline aversion, Emax is the maximum induced aversion, ENG is the receptor engagement, and h is the slope (Hill) parameter. Parameter estimation was performed according to a maximum likelihood approach with an additive error model, incorporating data from all compounds simultaneously. Uncertainty of parameter estimates was determined by bootstrapping, sampling single measurements randomly with replacement within each experiment (N=500). Numeric analyses were performed in MATLAB (R2023b; The MathWorks, Natick, MA). The aversion data are given as mean and standard error (N=9-11 per group). In this experiment, the LAA/SARA1 was that of SEQ ID NO: 11, SARA2 was eloralintide, DACRA1 was cagrilintide, and DACRA2 was petrelintide.

[8] = tested on: High-fat diet (DIO) fed rats; assay: Example 9: 4-week LAA or DACRA monotherapy in DIO rats; type: in vivo, rat; settings: for BW reduction compared to vehicle / reduction of cumulative food intake: 4 weeks; for proportion of body weight loss that was fat-mass specific: FIG. 8C
Source text: Study 1 Design: High-fat diet (DIO) fed rats were used to profile LAA or DACRA monotherapy to evaluate food intake, body weight-lowering and body composition effects in a 4-week study. In this experiment, the LAA was that of SEQ ID NO: 11 and the DACRA was cagrilintide.

[9] = target: T1, rat calcitonin receptor (Rattus norvegicus, UniProt P32214); assay: Target engagement estimate (unbound Cmax / unbound in vitro potency), calcitonin receptor; settings: DACRA 10 nmol/kg vs LAA 30 nmol/kg
T1 construct: expressed in transfected cells; host or cells: HEK293
T1 sequence (P32214 25-516): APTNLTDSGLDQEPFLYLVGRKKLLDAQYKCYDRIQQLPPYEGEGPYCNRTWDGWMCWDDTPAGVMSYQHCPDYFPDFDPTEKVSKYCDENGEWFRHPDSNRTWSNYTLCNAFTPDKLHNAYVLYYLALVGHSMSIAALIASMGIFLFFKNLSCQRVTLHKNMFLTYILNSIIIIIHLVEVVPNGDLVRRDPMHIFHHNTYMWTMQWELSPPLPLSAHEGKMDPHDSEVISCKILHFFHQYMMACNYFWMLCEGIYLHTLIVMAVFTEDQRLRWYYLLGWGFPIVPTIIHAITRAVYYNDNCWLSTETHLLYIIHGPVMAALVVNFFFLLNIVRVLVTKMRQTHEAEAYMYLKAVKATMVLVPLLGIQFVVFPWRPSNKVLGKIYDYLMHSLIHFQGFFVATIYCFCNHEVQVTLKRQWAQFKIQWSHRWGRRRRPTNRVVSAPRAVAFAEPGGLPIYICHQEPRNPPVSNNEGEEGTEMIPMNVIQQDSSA
Experimental: as §2, with “The Emax model was defined as aversion=E0+Emax×(ENG^h/(ENG^h+ED50^h)), where E0 is the baseline aversion, Emax is the maximum induced aversion, ENG is the receptor engagement, and h is the slope (Hill) parameter. Parameter estimation was performed according to a maximum likelihood approach with an additive error model, incorporating data from all compounds simultaneously.” left out, “Numeric analyses were performed in MATLAB (R2023b; The MathWorks, Natick, MA). The aversion data are given as mean and standard error (N=9-11 per group). In this experiment, the LAA/SARA1 was that of SEQ ID NO: 11, SARA2 was eloralintide, DACRA1 was cagrilintide, and DACRA2 was petrelintide.” left out

[10] = target: T2, rat amylin receptor (calcitonin receptor plus RAMP3) (rat, UniProt P32214 25-516; Q9JJ73 23-147); assay: cell-based or functional assay
T2 sequence (looked up) 1: T1 sequence (P32214 25-516)
T2 sequence (looked up) 2: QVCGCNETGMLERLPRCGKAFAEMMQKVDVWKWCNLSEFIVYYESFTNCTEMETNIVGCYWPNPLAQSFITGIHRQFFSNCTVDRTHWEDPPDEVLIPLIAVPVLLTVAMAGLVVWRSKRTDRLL

[11] = target: human amylin receptor 3 (hAMY3R; complex of hCTR and hRAMP3) (human, UniProt P30825 2-629; O60896 24-148, limits assumed); assay: cell-based or functional assay
human amylin receptor 3 (hAMY3R; complex of hCTR and hRAMP3), sequence (P30825 2-629 limits assumed, chain 1 of 2): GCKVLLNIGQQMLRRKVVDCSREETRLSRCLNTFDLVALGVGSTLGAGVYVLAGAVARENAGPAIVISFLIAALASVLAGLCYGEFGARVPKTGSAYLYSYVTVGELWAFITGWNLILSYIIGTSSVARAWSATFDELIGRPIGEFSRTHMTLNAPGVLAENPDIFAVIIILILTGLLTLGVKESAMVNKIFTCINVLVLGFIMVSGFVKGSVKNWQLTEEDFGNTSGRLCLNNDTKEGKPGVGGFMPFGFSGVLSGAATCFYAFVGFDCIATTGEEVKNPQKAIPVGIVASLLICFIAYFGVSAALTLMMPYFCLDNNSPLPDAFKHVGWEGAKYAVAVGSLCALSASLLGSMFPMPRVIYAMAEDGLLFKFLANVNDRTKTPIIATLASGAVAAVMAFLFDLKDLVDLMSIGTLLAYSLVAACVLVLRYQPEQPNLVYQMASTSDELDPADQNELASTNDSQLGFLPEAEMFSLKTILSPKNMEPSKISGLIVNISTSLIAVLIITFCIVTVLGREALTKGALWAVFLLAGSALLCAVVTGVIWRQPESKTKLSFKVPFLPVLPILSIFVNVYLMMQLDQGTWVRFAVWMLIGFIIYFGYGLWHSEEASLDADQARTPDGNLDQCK
human amylin receptor 3 (hAMY3R; complex of hCTR and hRAMP3), sequence (O60896 24-148 limits assumed, chain 2 of 2): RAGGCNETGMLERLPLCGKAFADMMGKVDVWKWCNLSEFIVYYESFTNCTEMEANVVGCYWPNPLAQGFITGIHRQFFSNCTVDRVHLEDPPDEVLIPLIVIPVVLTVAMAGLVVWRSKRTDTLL

Molecule: dulaglutide [GLP1-Fc]
- body weight change normalized to vehicle [1]: 1.0%

Molecule: HSQGTFTSD-X10-SEYLDSERARDFVAWLEAGG-acid, wherein X10=Lys[ε-γE-Palmitoyl] [GLP-1/GCG]
- GE AUC as % of Vehicle ([2]; 1 nmol/kg): 85%
- GE AUC as % of Vehicle ([2]; 3 nmol/kg): 49%
- GE AUC as % of Vehicle ([2]; 10 nmol/kg): 24%
- body weight loss vs Vehicle ([3]; SC QD, FIG. 1A): lost significantly more body weight than Vehicle treated rats
- fat mass change (EchoMRI) ([3]; day 26): lost both fat and lean mass compared to Vehicle treated animals
- lean mass change (EchoMRI) ([3]; day 26): lost both fat and lean mass compared to Vehicle treated animals
- mean change in body weight normalized to Vehicle ([4]; GLP-1/GCG 1.5 nmol/kg SC QD): −8.4%
- mean change in body weight normalized to Vehicle ([4]; GLP-1/GCG 5 nmol/kg SC QD): −25%
- Vh corrected BW change (BW gain) ([5]; 28 days SC daily, GLP-1/GCG dual agonist 1.5 nmol/kg): −8.4%
- Vh corrected BW change (BW gain) ([5]; 28 days SC daily, GLP-1/GCG dual agonist 5 nmol/kg): −25.0%
- Cumulative FI normalized to Vh ([5]; 28 days SC daily, monotherapy and combination groups): decreased in a dose-dependent manner
- Liver lipids (%) vs Vh ([5]; all GLP-1/GCG dual agonist 5 nmol/kg treated groups): lower than Vh
- Liver weights vs. Vh ([5]; all combination groups, GLP-1/GCG dual agonist monotherapy at 5 nmol/kg): Liver weights decreased

Molecule: cagrilintide [DACRA]
- Relative potency ratio (AMY3R/CTR), Human [6]: 0.08
- Relative potency ratio (AMY3R/CTR), Rat [7]: 0.01
- BW reduction compared to vehicle ([8]; 1 nmol/kg): −3±0.6%
- reduction of cumulative food intake ([8]; 1 nmol/kg): −7.1±2.1 % of vehicle
- BW reduction compared to vehicle ([8]; 3 nmol/kg): −5.3±1.1%
- reduction of cumulative food intake ([8]; 3 nmol/kg): −16±2.5 % of vehicle
- BW reduction compared to vehicle ([8]; 10 nmol/kg): −8.8±1.4%
- reduction of cumulative food intake ([8]; 10 nmol/kg): −23.9±3.5 % of vehicle
- BW reduction compared to vehicle ([8]; 20 nmol/kg): −11.6±0.9%
- reduction of cumulative food intake ([8]; 20 nmol/kg): −23.7±1.1 % of vehicle
- fat-mass loss ([8]; end of study, 10 nmol/kg): -15.5 ± 6.0 g
- proportion of body weight loss that was fat-mass specific ([8]; end of study, 10 nmol/kg): 54%
- proportion of body weight loss that was fat-mass specific ([8]; end of study, 20 nmol/kg): 61%
- lean mass ([8]; end of study, FIG. 8B): Lean mass was preserved in the LAA groups, unlike in the DACRA groups
- calcitonin engagement, fold more than LAA [9]: 2-3 fold

Molecule: K([γGlu-γGlu-C18 diacid])CNTATCATQRLANFLRHSSNN[αMeF]GPILPPTEVGSNTY-NH2 (disulfide 2-7) [LAA/SARA 1 (lipidated pramlintide analogue of SEQ ID NO: 11)]
- Relative potency ratio (AMY3R/CTR), Rat; cAMP accumulation assay, 0.1% BSA [10]: 1.6 ratio
- Relative potency ratio (AMY3R/CTR), Human; cAMP accumulation assay, 0.1% BSA [11]: 0.9 ratio

Molecule: KCNTATCATQRLANFLVHSSNNFGPILPPTNVGSNTY-NH2 (disulfide 2-7) [Pramlintide]
- Relative potency ratio (AMY3R/CTR), Rat; cAMP accumulation assay, 0.1% BSA [10]: 1 ratio
- Relative potency ratio (AMY3R/CTR), Human; cAMP accumulation assay, 0.1% BSA [11]: 1 ratio
